Earlier results, collected in US10285597B2 (dated 2019).

Conditions: TOL relative to TOSS (Ain=1 by definition); according to Bouillon et al., Anesthesiology 2004; 101: A503

## CC(C)c1cccc(C(C)C)c1O [propofol]
  C50 ratio of propofol for the tolerance of laryngoscopy as well as tolerance of shaking and loud shouting (stimulus intensity Ain for TOL): 2.83
